Measured values reported in US10815230B2, “Casein kinase 1 delta inhibitor” (ELECTROPHORETICS LIMITED, priority 2015, dated 2020).

Experiments:
Details in all cases: read-out: % Ctrl @ 10000 nM
[1] = molecular target: EGFR E746-A750del (Homo sapiens, UniProt P00533, DEL746-750); test: KINOMEscan binding assay
[2] = molecular target: MST2 (Homo sapiens, UniProt Q13188); test: KINOMEscan binding assay
[3] = molecular target: TRKB (Homo sapiens, UniProt Q16620); test: KINOMEscan binding assay
[4] = molecular target: ABL1 (Q252H) non-phosphorylated (Homo sapiens, UniProt P00519, Q252H); test: KINOMEscan binding assay
[5] = molecular target: RET (Homo sapiens, UniProt P07949); test: KINOMEscan binding assay
[6] = molecular target: MLK1 (Homo sapiens, UniProt P80192); test: KINOMEscan binding assay
[7] = molecular target: DCAMKL3 (Homo sapiens, UniProt Q9C098); test: KINOMEscan binding assay
[8] = molecular target: PCTK2 (Homo sapiens, UniProt Q00537); test: KINOMEscan binding assay
[9] = molecular target: STK33 (Homo sapiens, UniProt Q9BYT3); test: KINOMEscan binding assay
[10] = molecular target: PAK4 (Homo sapiens, UniProt O96013); test: KINOMEscan binding assay
[11] = molecular target: PKNB M. tuberculosis (Mycobacterium tuberculosis, UniProt P9WI81); test: biochemical; format: binding
[12] = molecular target: CDK4-cyclinD3 (Homo sapiens, UniProt P11802); test: KINOMEscan binding assay
[13] = molecular target: FLT3 (R834Q) (Homo sapiens, UniProt P36888, R834Q); test: KINOMEscan binding assay
[14] = molecular target: PIK3CG (Homo sapiens, UniProt P48736); test: KINOMEscan binding assay
[15] = molecular target: ERBB4 (Homo sapiens, UniProt Q15303); test: KINOMEscan binding assay
[16] = molecular target: T1, MAP4K3 (Homo sapiens, UniProt Q8IVH8); test: KINOMEscan binding assay
T1 construct: T7 phage fusion (most assays) or DNA label after HEK293 expression; purchased DiscoveRx (KINOMEscan, LeadHunter Discovery services); host or cells: T7 phage in E. coli (BL21-derived) or HEK293

[17] = molecular target: PKN1 (Homo sapiens, UniProt Q16512); test: KINOMEscan binding assay
[18] = molecular target: PYK2 (Homo sapiens, UniProt Q14289); test: KINOMEscan binding assay
[19] = molecular target: CAMKK1 (Homo sapiens, UniProt Q8N5S9); test: KINOMEscan binding assay
[20] = molecular target: BRAF (Homo sapiens, UniProt P15056); test: KINOMEscan binding assay
[21] = molecular target: KIT (L576P) (Homo sapiens, UniProt P10721, L576P); test: KINOMEscan binding assay
[22] = molecular target: CAMK2D (Homo sapiens, UniProt Q13557); test: KINOMEscan binding assay
[23] = molecular target: CSF1R (Homo sapiens, UniProt P07333); test: KINOMEscan binding assay
[24] = molecular target: RPS6KA4 Kin.Dom.2-C-terminal (Homo sapiens, UniProt O75676); test: KINOMEscan binding assay
[25] = molecular target: PRKG2 (Homo sapiens, UniProt Q13237); test: KINOMEscan binding assay
[26] = molecular target: AAK1 (Homo sapiens, UniProt Q2M2I8); test: KINOMEscan binding assay
[27] = molecular target: RIOK3 (Homo sapiens, UniProt O14730); test: KINOMEscan binding assay
[28] = molecular target: FLT1 (Homo sapiens, UniProt P17948); test: KINOMEscan binding assay
[29] = molecular target: ERK4 (Homo sapiens, UniProt P31152); test: KINOMEscan binding assay
[30] = molecular target: PFCDPK1 P. falciparum (Plasmodium falciparum, UniProt P62344); test: KINOMEscan binding assay
[31] = molecular target: LATS2 (Homo sapiens, UniProt Q9NRM7); test: KINOMEscan binding assay
[32] = molecular target: CSK (Homo sapiens, UniProt P41240); test: KINOMEscan binding assay
[33] = molecular target: MRCKA (Homo sapiens, UniProt Q5VT25); test: KINOMEscan binding assay
[34] = molecular target: CAMK1 (Homo sapiens, UniProt Q14012); test: KINOMEscan binding assay
[35] = molecular target: PLK4 (Homo sapiens, UniProt O00444); test: KINOMEscan binding assay
[36] = molecular target: TESK1 (Homo sapiens, UniProt Q15569); test: KINOMEscan binding assay
[37] = molecular target: INSRR (Homo sapiens, UniProt P14616); test: KINOMEscan binding assay
[38] = molecular target: p38-gamma (Homo sapiens, UniProt P53778); test: KINOMEscan binding assay
[39] = molecular target: CLK4 (Homo sapiens, UniProt Q9HAZ1); test: KINOMEscan binding assay
[40] = molecular target: ACVRL1 (Homo sapiens, UniProt P37023); test: KINOMEscan binding assay
[41] = molecular target: ACVR1B (Homo sapiens, UniProt P36896); test: KINOMEscan binding assay

Chain of ERBB4 (Q15303 26-1308): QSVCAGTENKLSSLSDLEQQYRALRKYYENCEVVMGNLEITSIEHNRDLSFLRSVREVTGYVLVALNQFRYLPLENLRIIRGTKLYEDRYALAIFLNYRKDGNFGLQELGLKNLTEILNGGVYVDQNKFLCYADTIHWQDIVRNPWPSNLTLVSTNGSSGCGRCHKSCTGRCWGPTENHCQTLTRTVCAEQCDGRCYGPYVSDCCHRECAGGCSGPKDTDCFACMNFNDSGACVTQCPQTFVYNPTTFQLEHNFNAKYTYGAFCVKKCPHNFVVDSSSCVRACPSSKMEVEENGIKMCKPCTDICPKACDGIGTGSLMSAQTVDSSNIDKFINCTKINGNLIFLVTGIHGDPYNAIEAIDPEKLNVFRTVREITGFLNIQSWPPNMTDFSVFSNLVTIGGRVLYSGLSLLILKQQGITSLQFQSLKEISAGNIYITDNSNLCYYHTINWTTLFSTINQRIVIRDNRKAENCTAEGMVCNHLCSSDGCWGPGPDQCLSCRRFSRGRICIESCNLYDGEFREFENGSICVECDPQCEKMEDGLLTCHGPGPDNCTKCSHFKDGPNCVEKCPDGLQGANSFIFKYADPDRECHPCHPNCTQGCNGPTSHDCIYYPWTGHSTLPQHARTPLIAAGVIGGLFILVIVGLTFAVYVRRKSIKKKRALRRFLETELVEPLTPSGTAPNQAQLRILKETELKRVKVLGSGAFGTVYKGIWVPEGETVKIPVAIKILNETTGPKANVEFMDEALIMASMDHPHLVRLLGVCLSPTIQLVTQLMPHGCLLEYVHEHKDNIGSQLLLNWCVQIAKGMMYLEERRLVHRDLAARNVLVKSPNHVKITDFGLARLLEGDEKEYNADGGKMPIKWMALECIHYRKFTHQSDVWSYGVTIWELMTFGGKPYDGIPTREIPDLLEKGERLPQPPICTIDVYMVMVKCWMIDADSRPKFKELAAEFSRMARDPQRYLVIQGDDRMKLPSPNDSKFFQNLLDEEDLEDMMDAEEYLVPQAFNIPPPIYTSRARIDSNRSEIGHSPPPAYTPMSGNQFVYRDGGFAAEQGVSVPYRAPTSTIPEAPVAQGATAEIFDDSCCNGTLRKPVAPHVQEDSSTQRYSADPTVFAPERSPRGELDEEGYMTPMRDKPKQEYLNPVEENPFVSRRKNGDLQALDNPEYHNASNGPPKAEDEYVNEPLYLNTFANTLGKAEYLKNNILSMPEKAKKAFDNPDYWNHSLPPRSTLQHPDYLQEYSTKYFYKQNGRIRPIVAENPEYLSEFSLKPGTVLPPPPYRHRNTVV
Chain of PRKG2 (Q13237 whole entry): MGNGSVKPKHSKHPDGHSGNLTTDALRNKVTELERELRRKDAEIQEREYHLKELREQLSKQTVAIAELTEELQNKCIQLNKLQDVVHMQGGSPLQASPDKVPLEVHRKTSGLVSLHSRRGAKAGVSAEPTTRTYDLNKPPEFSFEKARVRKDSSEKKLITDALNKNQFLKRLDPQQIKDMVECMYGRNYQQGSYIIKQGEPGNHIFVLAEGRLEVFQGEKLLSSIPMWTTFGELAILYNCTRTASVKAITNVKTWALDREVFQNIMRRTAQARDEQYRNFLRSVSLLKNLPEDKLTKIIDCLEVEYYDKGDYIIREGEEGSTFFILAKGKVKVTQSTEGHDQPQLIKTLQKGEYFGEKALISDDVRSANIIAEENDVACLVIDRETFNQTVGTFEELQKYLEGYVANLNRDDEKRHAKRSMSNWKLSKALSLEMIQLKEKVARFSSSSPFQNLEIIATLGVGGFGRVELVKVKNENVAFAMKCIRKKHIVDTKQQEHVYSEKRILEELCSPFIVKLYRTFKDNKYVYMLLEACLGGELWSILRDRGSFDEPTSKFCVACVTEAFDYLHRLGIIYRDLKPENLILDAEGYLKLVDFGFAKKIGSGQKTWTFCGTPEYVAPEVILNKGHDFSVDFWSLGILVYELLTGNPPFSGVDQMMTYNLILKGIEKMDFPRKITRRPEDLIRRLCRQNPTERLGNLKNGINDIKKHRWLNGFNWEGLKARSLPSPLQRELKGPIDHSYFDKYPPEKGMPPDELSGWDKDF
Chain of RPS6KA4 Kin.Dom.2-C-terminal (O75676 411-674 limits assumed): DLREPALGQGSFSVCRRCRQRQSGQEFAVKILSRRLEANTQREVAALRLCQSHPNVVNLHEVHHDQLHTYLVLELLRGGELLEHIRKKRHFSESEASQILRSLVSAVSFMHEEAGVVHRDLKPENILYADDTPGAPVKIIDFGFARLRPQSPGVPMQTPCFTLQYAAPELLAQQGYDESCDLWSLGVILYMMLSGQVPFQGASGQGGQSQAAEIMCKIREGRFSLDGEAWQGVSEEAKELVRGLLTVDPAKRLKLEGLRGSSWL
Chain of RET (P07949 29-1114): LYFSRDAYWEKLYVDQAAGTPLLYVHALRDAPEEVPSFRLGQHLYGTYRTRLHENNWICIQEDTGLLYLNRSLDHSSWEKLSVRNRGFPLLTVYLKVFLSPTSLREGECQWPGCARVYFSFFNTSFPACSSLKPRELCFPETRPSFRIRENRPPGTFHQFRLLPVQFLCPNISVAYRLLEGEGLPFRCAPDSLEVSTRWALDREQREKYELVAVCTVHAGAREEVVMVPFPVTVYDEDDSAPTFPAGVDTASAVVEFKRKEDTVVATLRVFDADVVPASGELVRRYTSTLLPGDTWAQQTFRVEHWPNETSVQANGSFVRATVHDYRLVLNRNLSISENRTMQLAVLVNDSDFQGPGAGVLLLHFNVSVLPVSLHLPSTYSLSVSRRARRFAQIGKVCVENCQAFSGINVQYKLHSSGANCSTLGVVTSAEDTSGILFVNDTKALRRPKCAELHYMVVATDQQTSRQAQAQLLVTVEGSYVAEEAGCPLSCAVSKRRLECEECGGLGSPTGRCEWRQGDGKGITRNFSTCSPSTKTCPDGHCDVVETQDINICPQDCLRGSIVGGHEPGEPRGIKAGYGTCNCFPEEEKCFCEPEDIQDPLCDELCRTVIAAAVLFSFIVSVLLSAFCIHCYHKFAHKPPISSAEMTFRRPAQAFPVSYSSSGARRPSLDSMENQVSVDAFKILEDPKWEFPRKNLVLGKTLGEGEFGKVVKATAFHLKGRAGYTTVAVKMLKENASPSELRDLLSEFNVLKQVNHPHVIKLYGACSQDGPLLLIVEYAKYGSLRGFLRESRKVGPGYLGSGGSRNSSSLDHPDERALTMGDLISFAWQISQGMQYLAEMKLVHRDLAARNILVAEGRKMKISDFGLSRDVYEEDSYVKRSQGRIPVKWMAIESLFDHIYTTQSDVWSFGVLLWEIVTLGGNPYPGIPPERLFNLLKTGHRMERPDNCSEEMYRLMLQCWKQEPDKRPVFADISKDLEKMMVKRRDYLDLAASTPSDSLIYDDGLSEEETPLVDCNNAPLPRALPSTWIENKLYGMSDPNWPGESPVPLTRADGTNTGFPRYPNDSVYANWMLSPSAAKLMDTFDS
Chain of p38-gamma (P53778 whole entry): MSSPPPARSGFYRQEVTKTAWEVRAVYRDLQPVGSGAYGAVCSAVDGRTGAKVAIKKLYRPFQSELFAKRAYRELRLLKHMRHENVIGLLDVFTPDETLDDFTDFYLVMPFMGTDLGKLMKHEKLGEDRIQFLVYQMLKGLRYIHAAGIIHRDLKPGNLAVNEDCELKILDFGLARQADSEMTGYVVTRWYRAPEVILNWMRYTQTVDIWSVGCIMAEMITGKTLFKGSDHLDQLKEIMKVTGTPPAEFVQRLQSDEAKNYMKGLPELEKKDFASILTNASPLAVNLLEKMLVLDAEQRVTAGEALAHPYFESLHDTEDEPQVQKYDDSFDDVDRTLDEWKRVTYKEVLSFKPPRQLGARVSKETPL
Chain of LATS2 (Q9NRM7 whole entry): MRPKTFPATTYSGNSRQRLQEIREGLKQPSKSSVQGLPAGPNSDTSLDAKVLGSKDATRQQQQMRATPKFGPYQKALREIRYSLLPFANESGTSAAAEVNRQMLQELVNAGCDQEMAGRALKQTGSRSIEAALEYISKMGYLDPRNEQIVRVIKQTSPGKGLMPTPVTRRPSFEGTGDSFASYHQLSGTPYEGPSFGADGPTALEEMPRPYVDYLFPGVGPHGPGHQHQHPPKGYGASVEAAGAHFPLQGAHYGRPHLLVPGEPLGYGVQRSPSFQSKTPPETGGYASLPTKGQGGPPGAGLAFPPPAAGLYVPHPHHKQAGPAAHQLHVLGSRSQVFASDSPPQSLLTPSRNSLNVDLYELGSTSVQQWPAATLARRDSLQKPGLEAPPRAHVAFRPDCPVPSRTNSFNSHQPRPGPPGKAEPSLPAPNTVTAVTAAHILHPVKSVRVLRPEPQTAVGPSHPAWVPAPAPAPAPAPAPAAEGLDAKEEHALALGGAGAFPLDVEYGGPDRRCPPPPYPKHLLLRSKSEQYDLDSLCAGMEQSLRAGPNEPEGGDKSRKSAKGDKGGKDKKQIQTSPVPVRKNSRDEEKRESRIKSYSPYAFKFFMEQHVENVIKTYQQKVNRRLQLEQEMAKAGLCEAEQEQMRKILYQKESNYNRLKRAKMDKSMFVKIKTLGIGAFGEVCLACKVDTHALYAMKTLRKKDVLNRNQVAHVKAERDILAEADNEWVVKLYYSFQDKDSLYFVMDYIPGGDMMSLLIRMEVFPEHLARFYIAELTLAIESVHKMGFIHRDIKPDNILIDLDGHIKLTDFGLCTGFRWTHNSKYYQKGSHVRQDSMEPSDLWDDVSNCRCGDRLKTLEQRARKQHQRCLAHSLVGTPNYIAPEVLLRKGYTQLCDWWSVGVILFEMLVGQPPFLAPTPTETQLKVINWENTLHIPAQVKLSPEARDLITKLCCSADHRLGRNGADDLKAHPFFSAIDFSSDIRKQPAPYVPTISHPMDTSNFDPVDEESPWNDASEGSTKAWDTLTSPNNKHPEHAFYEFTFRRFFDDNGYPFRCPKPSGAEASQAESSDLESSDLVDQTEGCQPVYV

## Nc1ncc(-c2nc3ccccc3o2)c(-c2ccncc2)n1 [Comparative Compound 324, 5-(1,3-benzoxazol-2-yl)-4-(pyridine-4-yl)pyrimidin-2-amine]
[1]
  remaining binding at 10 µM: 80%
[2]
  remaining binding at 10 µM: 94%
[3]
  remaining binding at 10 µM: 67%
[4]
  remaining binding at 10 µM: 31%
[5]
  remaining binding at 10 µM: 94%
[6]
  remaining binding at 10 µM: 100%
[7]
  remaining binding at 10 µM: 100%
[8]
  remaining binding at 10 µM: 99%
[9]
  remaining binding at 10 µM: 77%
[10]
  remaining binding at 10 µM: 98%
[11]
  remaining activity at 10 µM: 74%
[12]
  remaining binding at 10 µM: 100%
[13]
  remaining binding at 10 µM: 97%
[14]
  remaining binding at 10 µM: 32%
[15]
  remaining binding at 10 µM: 100%
[16]
  remaining binding at 10 µM: 100%
[17]
  remaining binding at 10 µM: 100%
[18]
  remaining binding at 10 µM: 100%
[19]
  remaining binding at 10 µM: 100%
[20]
  remaining binding at 10 µM: 77%
[21]
  remaining binding at 10 µM: 57%
[22]
  remaining binding at 10 µM: 99%
[23]
  remaining binding at 10 µM: 74%
[24]
  remaining binding at 10 µM: 100%
[25]
  remaining binding at 10 µM: 82%
[26]
  remaining binding at 10 µM: 83%
[27]
  remaining binding at 10 µM: 57%
[28]
  remaining binding at 10 µM: 91%
[29]
  remaining binding at 10 µM: 90%
[30]
  remaining binding at 10 µM: 78%
[31]
  remaining binding at 10 µM: 82%
[32]
  remaining binding at 10 µM: 100%
[33]
  remaining binding at 10 µM: 99%
[34]
  remaining binding at 10 µM: 100%
[35]
  remaining binding at 10 µM: 69%
[36]
  remaining binding at 10 µM: 88%
[37]
  remaining binding at 10 µM: 100%
[38]
  remaining binding at 10 µM: 61%
[39]
  remaining binding at 10 µM: 83%
[40]
  remaining binding at 10 µM: 100%
[41]
  remaining binding at 10 µM: 100%

## CNc1c(C(N)=O)c2ccccn2c1C(=O)c1ccc(F)cc1 [Compound A, 2-methyl-amino-3-[(4-fluorophenyl)carbonyl]indolizine-1-carboxamide]
[1]
  remaining binding at 10 µM: 25%
[2]
  remaining binding at 10 µM: 89%
[3]
  remaining binding at 10 µM: 76%
[4]
  remaining binding at 10 µM: 11%
[5]
  remaining binding at 10 µM: 80%
[6]
  remaining binding at 10 µM: 95%
[7]
  remaining binding at 10 µM: 100%
[8]
  remaining binding at 10 µM: 83%
[9]
  remaining binding at 10 µM: 72%
[10]
  remaining binding at 10 µM: 89%
[11]
  remaining activity at 10 µM: 86%
[12]
  remaining binding at 10 µM: 96%
[13]
  remaining binding at 10 µM: 95%
[14]
  remaining binding at 10 µM: 79%
[15]
  remaining binding at 10 µM: 64%
[16]
  remaining binding at 10 µM: 100%
[17]
  remaining binding at 10 µM: 88%
[18]
  remaining binding at 10 µM: 100%
[19]
  remaining binding at 10 µM: 89%
[20]
  remaining binding at 10 µM: 93%
[21]
  remaining binding at 10 µM: 29%
[22]
  remaining binding at 10 µM: 78%
[23]
  remaining binding at 10 µM: 87%
[24]
  remaining binding at 10 µM: 100%
[25]
  remaining binding at 10 µM: 76%
[26]
  remaining binding at 10 µM: 62%
[27]
  remaining binding at 10 µM: 72%
[28]
  remaining binding at 10 µM: 91%
[29]
  remaining binding at 10 µM: 78%
[30]
  remaining binding at 10 µM: 0.9%
[31]
  remaining binding at 10 µM: 72%
[32]
  remaining binding at 10 µM: 91%
[33]
  remaining binding at 10 µM: 94%
[34]
  remaining binding at 10 µM: 100%
[35]
  remaining binding at 10 µM: 70%
[36]
  remaining binding at 10 µM: 90%
[37]
  remaining binding at 10 µM: 100%
[38]
  remaining binding at 10 µM: 79%
[39]
  remaining binding at 10 µM: 76%
[40]
  remaining binding at 10 µM: 100%
[41]
  remaining binding at 10 µM: 100%
